Measured values: publication PMC9780857 (International Journal of Molecular Sciences, 2022)
Converted amounts (≈) assume the structure as drawn. “And” between values parts separate entries of the source, which are not always exact repeats. Identical values can stand only once. “Also recorded” adds a separate entry of the source. Like-named read-outs stand apart in the source and are kept apart here.

Experiments:
mOct2 [1] = target: T1, mOct2 (Mus musculus, UniProt O70577); experiment: Inhibition of mOct2-mediated 14C-metformin uptake in transfected HEK293 cells; type: cell-based; parameters: expressed in transfected cells; host or cells: HEK293 (stably transfected)
T1 sequence (O70577 1-553): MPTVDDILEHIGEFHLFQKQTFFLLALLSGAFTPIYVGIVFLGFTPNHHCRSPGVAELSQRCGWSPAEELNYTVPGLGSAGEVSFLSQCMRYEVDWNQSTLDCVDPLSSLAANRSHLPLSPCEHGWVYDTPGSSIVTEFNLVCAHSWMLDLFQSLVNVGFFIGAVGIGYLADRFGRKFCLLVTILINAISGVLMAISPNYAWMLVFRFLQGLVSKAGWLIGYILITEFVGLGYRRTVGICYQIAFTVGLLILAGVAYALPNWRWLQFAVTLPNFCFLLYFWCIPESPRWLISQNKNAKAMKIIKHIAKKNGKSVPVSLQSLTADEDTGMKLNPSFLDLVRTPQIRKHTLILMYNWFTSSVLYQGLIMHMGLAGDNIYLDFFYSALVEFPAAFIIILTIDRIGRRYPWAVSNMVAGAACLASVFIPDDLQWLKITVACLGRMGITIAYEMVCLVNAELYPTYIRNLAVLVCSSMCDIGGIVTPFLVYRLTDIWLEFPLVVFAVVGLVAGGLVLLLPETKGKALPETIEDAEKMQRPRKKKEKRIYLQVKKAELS
Method: (§1) The uptake assays were performed as previously described in 24-well plates. […] After incubation, the uptake was stopped by aspirating the reaction mixture and washing the cells three times with 0.4 mL ice-cold PBS buffer. Cells were then solubilized with 0.6 mL of 1 N NaOH, overnight. The whole content of each well (0.6 mL) was transferred to a scintillation vial (Perkin Elmer). The radio-labelled amount was determined by liquid scintillation counting.
(§2) All inhibition experiments were conducted on at least two separate days in triplicate.
(§3) For screening experiments, cis-inhibition was carried out in duplicate by measuring the uptake of the labeled probe substrate in the absence and presence of 10 µM or 100 µM of the respective pesticide or drug. […] Inhibitory effects in percent were calculated from net-uptake. […]

hOCT2 [2] = target: T2, hOCT2 (Homo sapiens, UniProt O15244); parameters: method as in PMID 9260930; conditions: OCT2-overexpressing oocytes (procainamid); read-out: IC50, hOCT2-mediated TEA uptake; cited from earlier work
T2 sequence (O15244 1-555): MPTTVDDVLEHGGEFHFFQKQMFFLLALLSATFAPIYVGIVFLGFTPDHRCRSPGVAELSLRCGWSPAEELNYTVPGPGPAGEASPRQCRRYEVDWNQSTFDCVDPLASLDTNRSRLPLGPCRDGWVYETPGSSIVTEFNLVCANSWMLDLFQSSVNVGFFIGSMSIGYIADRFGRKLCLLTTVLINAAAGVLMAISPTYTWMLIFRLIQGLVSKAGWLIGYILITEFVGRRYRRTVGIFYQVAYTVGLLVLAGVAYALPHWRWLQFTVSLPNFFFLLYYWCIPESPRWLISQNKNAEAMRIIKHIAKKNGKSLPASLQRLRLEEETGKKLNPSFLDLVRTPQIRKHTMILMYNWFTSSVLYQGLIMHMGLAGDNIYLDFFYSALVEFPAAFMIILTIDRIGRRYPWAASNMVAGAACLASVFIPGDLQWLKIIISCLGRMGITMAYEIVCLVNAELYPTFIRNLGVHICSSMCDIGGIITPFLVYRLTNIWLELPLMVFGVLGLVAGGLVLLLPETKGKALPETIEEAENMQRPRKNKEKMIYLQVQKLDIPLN

hOCT2 [3] = target: T2, hOCT2; experiment: Inhibition of hOCT2-mediated 3H-MPP uptake in transfected HEK293 cells; type: cell-based; parameters: expressed in transfected cells; host or cells: HEK293 (stably transfected)
Method: (§4) With cDNA of hOCT2 (GeneBank: accession number: NM_003058.3) or mOct2 (NM_013667.2), stably overexpressing HEK293 cells were used for the experiments and empty vector-transfected HEK cells were used as control-HEK cells.
(§5) The uptake assays were performed as previously described in 24-well plates. Therefore, culture medium was aspirated, and each well was rinsed three times with 0.5 mL incubation buffer (HBSS supplemented with 20 mM HEPES, pH 7.4) and then incubated in 200 µL dosing solution containing ^3H-MPP or ^14C-metformin and the test compound. After incubation, the uptake was stopped by aspirating the reaction mixture and washing the cells three times with 0.4 mL ice-cold PBS buffer. Cells were then solubilized with 0.6 mL of 1 N NaOH, overnight. The whole content of each well (0.6 mL) was transferred to a scintillation vial (Perkin Elmer). The radio-labelled amount was determined by liquid scintillation counting.
(§6) […]. All inhibition experiments were conducted on at least two separate days in triplicate.
(§7) The Km and Vmax values were obtained using SigmaPlot version 13 by fitting the Michaelis–Menten equation V = Vmax*[S]/(Km + [S]), where V refers to the rate of substrate transport, Vmax refers to the maximum rate of substrate transport, [S] refers to the concentration of substrate, and Km is defined as the concentration of substrate at the half-maximal transport rate.

hOCT2 [4] = target: T2, hOCT2; parameters: expressed in transfected cells; host or cells: HEK293 (stably transfected); conditions: read-out: IC50, MPP uptake in hOCT2-HEK293 cells; HEK293; ref 28 (Hayer-Zillgen et al. 2002); cited from earlier work
hOCT2 [5] = target: T2, hOCT2; experiment: Inhibition of hOCT2-mediated 14C-metformin uptake in transfected HEK293 cells; type: cell-based; parameters: expressed in transfected cells; host or cells: HEK293 (stably transfected)
Method: as §1, §2, §3

mOct2 [6] = target: T1, mOct2; experiment: Inhibition of mOct2-mediated 3H-MPP uptake in transfected HEK293 cells; type: cell-based; parameters: expressed in transfected cells; host or cells: HEK293 (stably transfected)
Method: as §4, §5, §6, §7

[7] = Highest soluble concentration in assay buffer (determined visually); type: physicochemical; conditions: assay buffer (HBSS/HEPES), aqueous buffer, HBSS/HEPES pH 7.4
hOCT2 [8] = target: T2, hOCT2; conditions: MPP higher affinity than metformin
Method: as §1
(§8) All experiments were conducted on two separate days in triplicate.
(§9) The cellular protein amounts were analyzed in parallel to the transport experiments by the Bradford method as previously described.
as §7

mOct2 [9] = target: T1, mOct2; conditions: MPP higher affinity than metformin
Method: as §1, §8, §9, §7

hOCT2 [10] = target: T2, hOCT2; parameters: expressed in transfected cells; host or cells: HEK293 (stably transfected); conditions: cited from earlier work
MATEs = tested on: MATEs; parameters: method as in ref 33 (Wittwer et al.); conditions: ref 33 (Wittwer et al.); read-out: IC50, MATEs-mediated ASP+ uptake; cited from earlier work
[11] = substrate: C[n+]1ccc(-c2ccccc2)cc1; experiment: cells, lysate or membranes; conditions: other: substrate, metformin 2 min, MPP 1 min, 37 °C, pH 7.4
[12] = 10 µM test compound; 1 µM [14C]metformin, 2 min, HEK293; negative = stimulation
[13] = 100 µM test compound; 1 µM [14C]metformin, 2 min, HEK293; negative = stimulation
[14] = HEK293; read-out: Inhibitory Effects (%) mOct2 10 µM Mean
[15] = HEK293; read-out: Inhibitory Effects (%) mOct2 100 µM Mean
[16] = up to 100 µM (highest soluble concentration)
[17] = HEK293, 10 µM test compound; 1 µM [14C]metformin, 2 min, HEK293; negative = stimulation; read-out: Inhibitory Effects (%) hOCT2 10 µM Mean
[18] = HEK293, 100 µM test compound; 1 µM [14C]metformin, 2 min, HEK293; negative = stimulation; read-out: Inhibitory Effects (%) hOCT2 100 µM Mean

CCN1/C(=C/c2ccc3ccccc3[n+]2CC)C=Cc2ccccc21.[I-] [Decynium22]
Fold higher inhibitory potential on metformin uptake compared to MPP uptake, mOct2 (mOct2 [1]): 2.7 fold
Inhibitory Effects (%) mOct2 10 µM Mean (mOct2 [1]; [12]): 72%
Inhibitory Effects (%) mOct2 100 µM Mean (mOct2 [1]; [13]): 97%
IC50 (mOct2 [1]; read-out: IC50, mOct2-mediated metformin uptake; control inhibitor; 350 µM metformin; 0.1-100 µM inhibitor): 2600 nM
IC50 (hOCT2 [2]): 100 nM
Fold higher IC50 for hOCT2 than for mOct2 (hOCT2 [3]; MPP as substrate): 2 fold and 2.3 fold
IC50 (hOCT2 [3]; read-out: IC50, hOCT2-mediated MPP uptake, control inhibitor, MPP at its Km, 0.1-100 µM inhibitor): 16000 nM
IC50 (hOCT2 [4]): 1300 nM
Fold higher inhibitory potential on metformin uptake compared to MPP uptake, hOCT2 (hOCT2 [5]): 7.2 fold
Inhibitory Effects (%) hOCT2 10 µM Mean (hOCT2 [5]; [12]): 67%
Inhibitory Effects (%) hOCT2 100 µM Mean (hOCT2 [5]; [13]): 96%
IC50 (hOCT2 [5]; read-out: IC50, hOCT2-mediated metformin uptake; control inhibitor; 350 µM metformin; 0.1-100 µM inhibitor): 2200 nM
IC50 (mOct2 [6]; read-out: IC50, mOct2-mediated MPP uptake, control inhibitor, MPP at its Km, 0.1-100 µM inhibitor): 6900 nM

COc1cc2c(cc1OC)CN(CCc1ccc(NC(=O)c3cccc4c(=O)c5cccc(OC)c5[nH]c34)cc1)CC2 [Elacridar]
IC50 (mOct2 [1]): 1900 nM
inhibition at 10 µM (mOct2 [1]; [14]): 56%
inhibition at 100 µM (mOct2 [1]; [15]): 81%
Fold higher inhibitory potency to mouse than to human OCT2 (IC50 ratio) (mOct2 [1]; metformin as substrate): 10 fold
IC50, hOCT2-mediated MPP uptake (hOCT2 [3]; 2 nM [3H]MPP): no IC50 value could be determined; also recorded: calculation of an IC50 value was not possible
Maximum inhibition of hOCT2-mediated MPP uptake (hOCT2 [3]; [16]): ≤ 60%
solubility [7]: 100 µM (≈ 56.4 µg/mL)
IC50 (hOCT2 [5]): 20000 nM
inhibition at 10 µM (hOCT2 [5]; HEK293; read-out: Inhibitory Effects (%) hOCT2 10 µM Mean): 25%
inhibition at 100 µM (hOCT2 [5]; HEK293; read-out: Inhibitory Effects (%) hOCT2 100 µM Mean): 65%
IC50, mOct2-mediated MPP uptake (mOct2 [6]; 2 nM [3H]MPP): no IC50 value could be determined; also recorded: calculation of an IC50 value was not possible
Maximum inhibition of mOct2-mediated MPP uptake (mOct2 [6]; [16]): ≤ 60%

C[n+]1ccc(-c2ccccc2)cc1.[I-] [MPP, 1-Methyl-4-phenylpyridinium iodide]
Fold difference in affinity (Km) of hOCT2 between MPP and metformin (hOCT2 [8]): 64 fold
Fold difference in affinity (Km) of mOct2 between MPP and metformin (mOct2 [9]): 89 fold

C[n+]1ccc(-c2cc[n+](C)cc2)cc1 [Paraquat]
inhibition at 10 µM (mOct2 [1]; HEK293, read-out: Inhibitory Effects (%) mOct2 10 µM Mean): -9%
inhibition at 100 µM (mOct2 [1]; HEK293, read-out: Inhibitory Effects (%) mOct2 100 µM Mean): -48%
inhibition at 10 µM (hOCT2 [5]; HEK293, read-out: Inhibitory Effects (%) hOCT2 10 µM Mean): -15%
inhibition at 100 µM (hOCT2 [5]; HEK293, read-out: Inhibitory Effects (%) hOCT2 100 µM Mean): -52%
Km (hOCT2 [10]; read-out: Km, concentration dependent uptake by human OCT2): 114 µM

CNC(=C[N+](=O)[O-])NCCSCc1ccc(CN(C)C)o1 [Ranitidine]
inhibition at 10 µM (mOct2 [1]; [14]): -37%
inhibition at 100 µM (mOct2 [1]; [15]): -16%
inhibition at 10 µM (hOCT2 [5]; [17]): -43%
inhibition at 100 µM (hOCT2 [5]; [18]): -33%
Km (hOCT2 [10]; ref 36 (Tahara et al.), read-out: Km, substrate of hOCT2): 65.2 µM

CC(C)c1nc(CN(C)C(=O)N[C@H](C(=O)N[C@@H](Cc2ccccc2)C[C@H](O)[C@H](Cc2ccccc2)NC(=O)OCc2cncs2)C(C)C)cs1 [Ritonavir]
IC50 (MATEs): 4400 nM
inhibition at 10 µM (mOct2 [1]; [14]): 1%
inhibition at 100 µM (mOct2 [1]; [15]): -8%
inhibition at 10 µM (hOCT2 [5]; [17]): -10%
inhibition at 100 µM (hOCT2 [5]; [18]): -38%

B1: mOct2 (Mus musculus) (protein)
chain: MPTVDDILEHIGEFHLFQKQTFFLLALLSGAFTPIYVGIVFLGFTPNHHCRSPGVAELSQRCGWSPAEELNYTVPGLGSAGEVSFLSQCMRYEVDWNQSTLDCVDPLSSLAANRSHLPLSPCEHGWVYDTPGSSIVTEFNLVCAHSWMLDLFQSLVNVGFFIGAVGIGYLADRFGRKFCLLVTILINAISGVLMAISPNYAWMLVFRFLQGLVSKAGWLIGYILITEFVGLGYRRTVGICYQIAFTVGLLILAGVAYALPNWRWLQFAVTLPNFCFLLYFWCIPESPRWLISQNKNAKAMKIIKHIAKKNGKSVPVSLQSLTADEDTGMKLNPSFLDLVRTPQIRKHTLILMYNWFTSSVLYQGLIMHMGLAGDNIYLDFFYSALVEFPAAFIIILTIDRIGRRYPWAVSNMVAGAACLASVFIPDDLQWLKITVACLGRMGITIAYEMVCLVNAELYPTYIRNLAVLVCSSMCDIGGIVTPFLVYRLTDIWLEFPLVVFAVVGLVAGGLVLLLPETKGKALPETIEDAEKMQRPRKKKEKRIYLQVKKAELS
Km [11]: 40 µM
